From article PMC5814047, “Peptidic inhibitors of insulin-degrading enzyme with potential for dermatological applications discovered via phage display” (PLoS ONE, 2018)
Values joined by “and” are separate entries in the source; they are usually repeats but may differ in a detail not shown here. Equal values may be shown once. Bridge positions count the residues as written; N and C are the ends. Peptide text beside a SMILES is read from it.

Tests used:
[1] = system: COL1A1 mRNA in primary murine skin fibroblasts; test: COL1A1 mRNA quantification by RT-PCR; type: cell-based
Experimental: (§1) Insulin promotes wound healing and overall skin health by affecting a number of processes, including cell proliferation, cell migration, and the production and secretion of ECM components, particularly type I collagen. We therefore assessed the ability of P12-3A to influence these processes in cultured skin fibroblasts and keratinocytes. To that end, primary mouse skin fibroblasts were grown for 4 d in multiple concentrations of insulin in the presence or absence of P12-3A, and insulin concentration over time was monitored by ELISA. […] Finally, the effects of P12-3A on collagen production in were assessed at both the transcriptional and the posttranslational level in confluent monolayers of fibroblasts. After 4 d of treatment with P12-3A (100 μM), mRNA levels for the major form of collagen, alpha-1 type I collagen (COL1A1), were quantified by RT-PCR and found to be increased to ~2.6 times the levels of untreated cells (Fig 4C). To assess overall levels of collagen production and secretion, we quantified levels of hydroxyproline, a modified amino acid present almost exclusively in collagen proteins. […] Western blotting also confirmed that mature, cell-associated collagen levels were increased in the presence of P12-3A (Fig 4E).
(§2) Fig 4 Effects of P12-3A on cultured skin cells. A, Insulin concentrations as a function of time in logarithmically growing primary murine skin fibroblasts in the absence or presence of P12-3A (100 μM). […] Data are mean ± SEM of 4 independent replications. *P<0.05, **P<0.01. B, Proliferation of cells in the absence or presence of P12-3A (100 μM). Data are mean ± SEM of 6 independent replications. […] C,D,E, P12-3A (100 μM) potentiates insulin-induced collagen production in skin fibroblasts. Collagen production was assessed by COL1A1 mRNA levels (C), levels of hydroxyproline secreted into the medium (D), and cell-associated mature alpha-1 type I collagen levels detected by Western blotting (E). Data are mean ± SD of 4 independent replications. *P<0.05, **P<0.01. […] Migration of HaCaT cells 48 h after induction of a scratch wound in the presence of the indicated quantities of insulin and/or P12-3A (100 μM). Data are mean ± SEM of 6 independent replications. *P<0.05, **P<0.01.
RNA was extracted from freshly lysed cells, reverse transcribed and amplified using the Ambion® Fast SYBR® Green Cells-to-CT™ Kit according to manufacturer’s recommendations (Thermo Fisher Scientific, Waltham, MA, USA). The quantitative real-time PCR reaction was conducted using a 7500 real-time PCR system and analyzed using System SDS software v2.0.5 (Applied Biosystems). Murine COL1A1 mRNA was detected using the following primers (forward: 5’-[…] and reverse: 5’ […]). Fold change differences between samples were determined using the comparative Ct (ΔΔCt) method, normalized to internal standards detected with the SYBR® Green Cells-to-CT™ Control Kit according to manufacturer’s recommendations (Thermo Fisher Scientific, Waltham, MA, USA) calculated by 2^-ΔΔCt.

[2] = system: alpha-1 type I collagen in primary murine skin fibroblasts; test: Western blotting of cell-associated alpha-1 type I collagen; type: cell-based; details: for COL1A1 Adj. Band Vol. normalized to control on each gel: control = Day 0 COL1A1+DMSO sample; for Normalized COL1A1/GAPDH ratio, Mean: mean of 4 replicates; for COL1A1/GAPDH ratio normalized to Day 0, DMSO only control, Mean: mean of 4 replicates (Figure 4E)
Experimental: as §1, §2
Protein was collected using the M-Per Mammalian Extraction Reagent and the concentration was quantified using the Pierce™BCA Protein Assay Kit according to manufacturer’s recommendations (Thermo Fisher Scientific, Waltham, MA, USA). Protein (30 μg/well) was separated SDS-PAGE under reducing conditions using Novex™ 10% polyacrylamide tris-glycine mini gels and transferred to nitrocellulose membranes as described. Briefly, membranes were blocked in 5% non-fat milk in tris-buffered saline supplemented with 0.2% Tween-20 (TBST), cut into segments and incubated for 1 h at room temperature with anti-alpha-1 type I collagen (1:5000) and anti-GAPDH (1:10,000) antibodies, washed extensively in TBST, then probed with anti-rabbit (1:20,000) or anti-goat (1:50,000) secondary antibodies, respectively, and detected by enhanced chemoluminescence using SuperSignal West Pico Substrate. Protein expression, normalized to GAPDH levels, was quantified using the band analysis tools of ImageLab software, version 4.1 (Bio-Rad Laboratories, Inc., Hercules, CA, USA).

[3] = system: 15 different proteases; test: Selectivity against 15 different proteases (S4 Fig); type: biochemical; details: P12-3A 100 μM
Experimental: Taken together with the potency of all peptides against insulin (Table 1), we concluded that P12-3A represented the best inhibitor for further studies, and a highly purified, deliberately cyclized version (Fig 3A) was synthesized. […] Based on its potency, stability and selectivity for IDE, P12-3A was selected for use in downstream assays.
IDE activity was quantified by monitoring the degradation of Mca-[…](Dnp) (FRET1, 5 μM), fluoresceinated and biotinylated amyloid ß-protein (FAßB; 500 nM) or recombinant human insulin (50 nM) in PBS supplemented with 0.05% BSA. FRET1 degradation was measured by changes in fluorescence (λex = 340 nm, λem = 420 nm); FAßB degradation was monitored by fluorescence polarization (λex = 488 nm, λem = 525 nm), as described; and insulin degradation was quantified by ELISA. In vitro activity assays incorporated recombinant human IDE (1 nM) purified from bacteria. For quantitation of insulin degradation in primary murine skin fibroblasts, cells (1 x 10^5/well) were plated in 96-well plates and maintained in DMEM supplemented with 10% fetal bovine serum (FBS), 2mM glutamine, penicillin and streptomycin. After addition of insulin (10 nM or 100 nM), samples of conditioned medium were removed daily and quickly frozen, then insulin levels were quantified in parallel by ELISA according to manufacturer’s recommendations (Crystal Chem, Downers Grove, IL, USA). […]

[4] = P12-3A 100 uM, individual replicates

CC(C)C[C@H](NC(=O)[C@H](CO)NC(=O)[C@@H](N)CCC(N)=O)C(=O)N1CCC[C@H]1C(=O)N[C@@H](Cc1c[nH]c2ccccc12)C(=O)N[C@H]1CSSC[C@@H](C(=O)N[C@H](C(=O)N[C@H](C(N)=O)[C@@H](C)O)C(C)C)NC(=O)[C@H](Cc2c[nH]cn2)NC(=O)[C@@H]2CCCN2C(=O)[C@H](Cc2ccc(O)cc2)NC1=O [P12-3A] (H-QSLPWCYPHCVT-NH2; disulfide 6-10 (inferred))
COL1A1 mRNA levels ([1]; 100 μM P12-3A, 4 d, confluent monolayers): ~ 2.6 times the levels of untreated cells | 2^(-DCt), COL1A1 mRNA, Mean ([1]; P12-3A 100 uM, N 4): 0.490 | DCt (COL1A1 mRNA vs internal standard ß-actin), Mean ([1]; P12-3A 100 uM, N 4): 1.082 | 2^(-DCt), COL1A1 mRNA [1, 4]: 0.454 and 0.570 and 0.306 and 0.629 | DCt (COL1A1 mRNA vs internal standard ß-actin) [1, 4]: 1.14 and 0.81 and 1.71 and 0.67 | COL1A1 mRNA, normalized, Mean ([1]; P12-3A 100 uM, normalized to control mean (1.000), N 4): 2.644 | COL1A1 mRNA, normalized ([1]; P12-3A 100 uM, normalized to control mean (1.000), individual replicates): 2.451 and 3.081 and 1.651 and 3.395 | Ct, COL1A1 mRNA, Mean ([1]; P12-3A 100 uM, raw Ct, N 4): 21.783 | Ct, COL1A1 mRNA ([1]; P12-3A 100 uM, raw Ct, individual replicates): 22.07 and 21.23 and 21.93 and 21.9 | COL1A1/GAPDH ratio normalized to Day 0, DMSO only control ([2]; Day 0, individual replicates): 102.562 and 78.683 and 108.954 and 116.015 | Normalized COL1A1/GAPDH ratio from same sample ([2]; Day 0, individual replicates): 1.131 (2×) and 0.868 (2×) and 1.202 (2×) and 1.28 and 1.280 | COL1A1 Adj. Band Vol. normalized to control on each gel ([2]; Day 0, individual replicates): 1.022 and 0.7932 and 0.9786 and 1.091 | Normalized COL1A1/GAPDH ratio, Mean ([2]; Day 0): 1.120 | COL1A1/GAPDH ratio normalized to Day 0, DMSO only control, Mean ([2]; Day 0): 102 | Normalized COL1A1/GAPDH ratio from same sample ([2]; Day 4, individual replicates): 4.269 (2×) and 4.793 (2×) and 3.93 and 3.135 (2×) and 3.930 | COL1A1 Adj. Band Vol. normalized to control on each gel ([2]; Day 4, individual replicates): 3.82 and 4.41 and 3.218 and 2.717 | Normalized COL1A1/GAPDH ratio, Mean ([2]; Day 4): 4.032 | COL1A1/GAPDH ratio normalized to Day 0, DMSO only control, Mean ([2]; Day 4): 345 | mature, cell-associated collagen levels ([2]; in the presence of P12-3A (100 μM)): increased | inhibition against 15 different proteases [3]: essentially no inhibition
